Like-named read-outs stand apart in the source and are kept apart here.
Key:
[1] = molecular target: human Werner helicase (WRN, amino acids 517-1235 with L1074F point mutation) (Homo sapiens (Human), UniProt Q14191, L1074F); experiment: WRN (BV08) ADP-Glo assay; assay type: biochemical; conditions: human WRN (aa 517-1235, L1074F), read-out: ADP-Glo_hWRN_IC50
Text: Bovine skin gelatin (BSG), dimethyl sulfoxide (DMSO), Pluronic F-127 and tris(2-carboxyethyl)phosphine hydrochloride solution (TCEP) were purchased from Sigma-Aldrich (St. Louis, MO) at the highest level of purity possible. Bicine buffer solution was purchased from Alfa Aesar (Tewksbury, MA) and compound NSC-617145 was purchased from Tocris (Minneapolis, MN). DNA duplex was synthesized at BGI (Shenzhen, China) and was composed of strand 1 with the sequence 5′-[…]-3′ (SEQ ID NO.: 1) and strand 2 with the sequence 5′-[…]-3′ (SEQ ID NO.: 2). DNA strands were annealed by heating to 95° C. for 5 minutes followed by slow cooling to room temperature. Compounds in 100% DMSO (0.1 μl) were spotted into a 384-well white polystyrene Optiplate-384 (Perkin Elmer; Waltham, MA) assay plate using a LabCyte Echo 550 (Agilent; Santa Clara, CA). DMSO (0.1 μl) was added to columns 12, rows A-H and column 24, rows I-P for the maximum signal control. Compound NSC-617145 (0.1 μl) was added to columns 12, rows I-P and 24, rows A-H for the minimum signal control (100% inhibition). Compounds/DMSO were preincubated for 15 minutes at 25° C. with 5 μl 2×WRN (BV08), prepared as described below, in assay buffer containing 20 mM Bicine (pH=7.5), 1 mM MgCl2, 10 mM KCl, 0.1% Pluronic F-127, 0.005% BSG, 1 mM TCEP. The reaction was initiated by the addition of 5 μl 2× substrate mixture in assay buffer and incubated for 60 minutes at 25° C. The final concentrations of the assay components were 0.15 nM WRN, 5 μM ATP, and 0.1 nM DNA duplex. The final DMSO concentration was 1% and the reference compound concentration (NSC-617145) used for the minimal signal control was 20 μM. The reaction was stopped by the addition of the ADP-Glo Kit components (Promega; Madison, WI) as directed and the relative luminescence units (RLU) were read on an Envision 2104 (Perkin Elmer; Waltham, MA).
% inhibition calculation:
% INH=(RLU MAX−RLU sample)/(RLU MAX−RLU MIN))×100
Where RLU=relative luminescence units, sample=signal in sample well, and MIN and MAX are the respective minimum and maximum signal controls. Four-parameter IC50 fit equation:
Y=Bottom+(Top−Bottom)/(1+(IC50/X)^Hill Slope)
Where top and bottom are normally allowed to float but may be fixed at 100 or 0 respectively in a 3-parameter fit. Y is the % inhibition and X is the compound concentration.
Molecular Biology and virus production. The DNA encoding human Werner helicase (Uniprot Q14191, amino acids 517-1235 with L1074F point mutation) was generated with codon-optimization for E. coli expression and subcloned into the pFastBac vector with a TEV cleavable 8×His tag (WRN—BV08). The baculovirus from the expression plasmid WRN—BV08 was generated from transfection and amplification following the manufacturer's instructions.
Sf9 cells grown in SF900II media were infected with 1:200 WRN—BV08 P2 virus and incubated for protein expression for 72 h at 27° C. The WRN protein was purified using the following protocol. The cell pellets were thawed and resuspended in buffer A (50 mM Tris, pH 7.5, 500 mM NaCl, 1 mM TCEP, 10% Glycerol) supplemented with 0.5% CHAPS, 1 mM PMSF, […] Leupeptin, 1 μg/ml Pepstatin, and the Pierce Universal Nuclease and cocktail tablet. Cleared lysates were loaded onto a Ni Sepharose™ excel column and washed with buffer A and bound protein was eluted with buffer A supplemented with 300 mM imidazole. The eluted protein was dialyzed against buffer A and digested by His-tagged TEV (1:5 ratio) overnight at 4° C. ZnCl2 was added into the sample at final 15 μM before loading onto a second Ni Sepharose™ excel column. Untagged WRN protein was eluted from the column with buffer A supplemented with 20 mM imidazole, dialyzed overnight into buffer B (50 mM Tris, pH 7.5, 1 mM TCEP, 10% Glycerol) supplemented with 150 mM NaCl and loaded onto a Heparin column. Proteins were eluted with a step gradient of buffer B supplemented with 150 mM, 200 mM, 300 mM and 500 mM NaCl. […]

[2] = tested on: p21 induction in HCT 116 cells; experiment: p21 induction in cells (In-Cell Western, p21/GAPDH ratio); assay type: cell-based; conditions: 24 h compound incubation, read-out: p21_EC50
Procedure: The colon carcinoma cell line HCT 116 was obtained from ATCC and cultured in growth medium consisting of Mccoy's 5A Medium (Gibco 16600108) supplemented with 10% FBS (Transgene FS201-02) and 100 units/mL penicillin-streptomycin (Gibco 15140122) and maintained at 37° C. under 5% CO2. On the day of seeding, 2,000 cells in 30 μL of culture media were plated per well to Poly-D-Lysine 384 Well Black Clear Plates (Biocoat 356663) and incubated overnight at 37° C. under 5% CO2. The following day, compounds were serially diluted in DMSO for a total of 11 test concentrations. The typical starting concentration of compounds was 10 μM with 2-fold dilutions. Next, 150 nL of diluted compound was added in duplicate to the assay plate, using an Echo 655 (Labcyte). The plate was centrifuged at 500 RPM for 1 min and then incubated at 37° C. under 5% CO2 for 24 h. After 24 h, medium was removed, and cells were fixed by adding 40 μL of 4% paraformaldehyde solution to each well and incubated for 20 min at room temperature. The plate was then washed 4 times with 100 μL per well of wash buffer (PBS with 0.1% Tween-20) using a microplate washer. Next, 30 μL of ice-cold methanol was added to each well and the plate was incubated at −20° C. for 10 min. The plate was washed 4 times with 100 μL per well of wash buffer by a microplate washer, then 30 μL per well of blocking buffer ((Intercept PBS blocking buffer (LI-COR 927-70001) with 0.05% Tween-20)) was added and the plate was incubated at room temperature with shaking for 2 h. Next, to each test well, 20 μL of primary antibody solution (p21 Wafl/CIP (12D1) RabbitmAb (Cell Signaling Technologies 2947) diluted 1:1000 and GAPDH (D4C6R) Mouse mAb (Cell Signaling Technologies 97166) diluted 1:2000 in blocking buffer) was added and the plate was placed at 4° C., overnight. The following day, the plate was washed 5 times with 100 μL per well of wash buffer using a microplate washer for 5 min. 20 μL per well of secondary antibody (IRDye 680CW Goat anti-Mouse IgG (H+L) (LI-COR 926-68070) diluted 1:2000 in Blocking Buffer and IRDye 800CW Goat anti-Rabbit IgG (H+L) (LI-COR 926-32211) diluted 1:2000 in Blocking Buffer) was then added and the plate was stored for 2 h in the dark at room temperature with shaking. The plate was then washed 4 times with 100 μL per well of wash buffer again using a microplate washer. Finally, the p21 signal and the GAPDH signal were quantified using a LI-COR Odyssey CLx Imager machine reading at 800 nm and 700 nm, respectively. Each plate contained DMSO control (low control) and an internal reference WRN inhibitor (high control) respectively. For quantitation, the 800 nm/700 nm ratio was calculated for each well to give fold p21 induction and then percent activation for each compound well was calculated as follows (100×(ratio cpd well-ratio low control)/(ratio high control−ratio low control). EC50 values for each compound was generated after non-linear regression curve fitting using commercially available software.

human Werner helicase (WRN, amino acids 517-1235 with L1074F point mutation), sequence (Q14191 other isoform, or with tags, fused parts or gaps L1074F (already in the parent)): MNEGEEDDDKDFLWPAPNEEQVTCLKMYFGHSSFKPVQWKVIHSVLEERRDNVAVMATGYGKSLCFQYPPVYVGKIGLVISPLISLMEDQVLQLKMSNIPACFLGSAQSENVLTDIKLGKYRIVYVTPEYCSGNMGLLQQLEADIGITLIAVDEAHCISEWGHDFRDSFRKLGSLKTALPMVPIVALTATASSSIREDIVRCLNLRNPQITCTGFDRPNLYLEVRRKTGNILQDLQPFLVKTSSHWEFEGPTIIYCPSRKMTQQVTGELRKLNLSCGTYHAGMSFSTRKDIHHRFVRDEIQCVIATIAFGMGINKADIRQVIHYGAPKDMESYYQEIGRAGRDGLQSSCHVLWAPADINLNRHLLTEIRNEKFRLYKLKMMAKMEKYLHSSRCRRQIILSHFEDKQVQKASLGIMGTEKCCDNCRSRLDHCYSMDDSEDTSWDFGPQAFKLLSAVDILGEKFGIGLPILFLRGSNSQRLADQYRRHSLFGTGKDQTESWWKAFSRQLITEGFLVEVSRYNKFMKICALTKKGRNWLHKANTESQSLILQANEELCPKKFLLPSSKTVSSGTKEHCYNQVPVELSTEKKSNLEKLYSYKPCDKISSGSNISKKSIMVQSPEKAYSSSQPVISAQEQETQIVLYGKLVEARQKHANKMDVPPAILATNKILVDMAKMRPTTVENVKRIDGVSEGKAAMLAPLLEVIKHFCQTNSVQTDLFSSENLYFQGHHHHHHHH

IC50 [1] [nM] | EC50 ([2]; Homo sapiens) [nM] | EC50 [2] [nM] | Compound
5 to 50 | 2000 to 5000 | – | CCc1c([C@]23CCN(C(=O)c4ncnc(C)c4O)C[C@H]2C3)c(=O)c2nn(-c3ccnc(OC)c3)nc2n1CC(=O)NC12CC(C(C)C)(C1)C2 (relative stereo) [Compound I-41, rel-2-{5-ethyl-6-[(1R,6S)-3-(5-hydroxy-6-methylpyrimidine-4-carbonyl)-3-azabicyclo[4.1.0]heptan-6-yl]-2-(2-methoxypyridin-4-yl)-7-oxo-2H,4H,7H-[1,2,3]triazolo[4,5-b]pyridin-4-yl}-N-[3-(propan-2-yl)bicyclo[1.1.1]pentan-1-yl]acetamide]
> 500 | > 5000 | – | CCc1c(N2CCN(C(=O)c3ncnc(C)c3O)[C@@H]3CCC[C@@H]32)c(=O)c2nn(-c3ccnc(OC)c3)nc2n1CC(=O)NC12CC(C(C)C)(C1)C2 (relative stereo) [Compound I-77, rel-2-{6-[(4aR,7aS)-4-(5-hydroxy-6-methylpyrimidine-4-carbonyl)-octahydro-1H-cyclopenta[b]pyrazin-1-yl]-5-ethyl-2-(2-methoxypyridin-4-yl)-7-oxo-2H,4H,7H-[1,2,3]triazolo[4,5-b]pyridin-4-yl}-N-[3-(propan-2-yl)bicyclo[1.1.1]pentan-1-yl]acetamide]
5 to 50 | 500 to 2000 | – | CCc1c(N2CCN(C(=O)c3c(OC)ncc([C@H]4CCOC4)c3O)CC2)c(=O)c2nn(-c3ccnc(OC)c3)nc2n1CC(=O)NC12CC(C(C)C)(C1)C2 (single isomer, unassigned) [Compound I-43]
5 to 50 | ≤ 500 | – | CCc1c(N2CCN(C(=O)c3c(OC)ncc([C@@H]4CCOC4)c3O)CC2)c(=O)c2nn(-c3ccnc(OC)c3)nc2n1CC(=O)NC12CC(C(C)C)(C1)C2 (single isomer, unassigned) [Compound I-44]
5 to 50 | ≤ 500 | – | CCc1c(C2=CCN(C(=O)c3ncnc(C)c3O)C[C@H]2C)c(=O)c2nn(-c3ccnc(OC)c3)nc2n1CC(=O)NC12CC(C(C)C)(C1)C2 (single isomer, unassigned) [Compound I-80]
5 to 50 | 500 to 2000 | – | CCc1c(C2=CCN(C(=O)c3ncnc(C)c3O)C[C@@H]2C)c(=O)c2nn(-c3ccnc(OC)c3)nc2n1CC(=O)NC12CC(C(C)C)(C1)C2 (single isomer, unassigned) [Compound I-81]
5 to 50 | ≤ 500 | – | CCc1c(N2CCN(C(=O)c3ncnc(C)c3O)[C@H]3CC[C@@H]32)c(=O)c2nn(C3=CCO[C@H](C)C3)nc2n1CC(=O)NC12CC(C3CC3)(C1)C2 (single isomer, unassigned) [Compound I-180]
5 to 50 | – | ≤ 500 | CCc1c(N2CCN(C(=O)c3ncnc(C)c3O)[C@H]3CC[C@@H]32)c(=O)c2nn(C3=CCO[C@H](C)C3)nc2n1CC(=O)NC12CC(C3CC3)(C1)C2 (single isomer, unassigned) [Compound I-181]
≤ 5 | – | – | CCc1c(N2CCN(C(=O)c3ncnc(C)c3O)[C@H]3CC[C@@H]32)c(=O)c2nn(-c3ccnc(OC)c3)nc2n1CC(=O)Nc1ccc(C(F)(F)F)cc1Cl [Compound I-6, N-(2-chloro-4-(trifluoromethyl)phenyl)-2-(5-ethyl-6-((1S,6S)-5-(5-hydroxy-6-methylpyrimidine-4-carbonyl)-2,5-diazabicyclo[4.2.0]octan-2-yl)-2-(2-methoxypyridin-4-yl)-7-oxo-2,7-dihydro-4H-[1,2,3]triazolo[4,5-b]pyridin-4-yl)acetamide]
5 to 50 | – | – | CCc1c(N2CCN(C(=O)c3ncnc(C)c3O)CC2)c(=O)c2nn(C3=CCOCC3)nc2n1CC(=O)Nc1ccc(C(F)(F)F)cc1Cl [Compound I-13, N-(2-chloro-4-(trifluoromethyl)phenyl)-2-(2-(3,6-dihydro-2H-pyran-4-yl)-5-ethyl-6-(4-(5-hydroxy-6-methylpyrimidine-4-carbonyl)piperazin-1-yl)-7-oxo-2,7-dihydro-4H-[1,2,3]triazolo[4,5-b]pyridin-4-yl)acetamide]
5 to 50 | – | – | CCc1c(N2CCN(C(=O)c3ncnc(C)c3O)CC2)c(=O)c2nn(-c3cc(C)n(C)n3)nc2n1CC(=O)Nc1ccc(C(F)(F)F)cc1Cl [Compound I-16, N-(2-chloro-4-(trifluoromethyl)phenyl)-2-(2-(1,5-dimethyl-1H-pyrazol-3-yl)-5-ethyl-6-(4-(5-hydroxy-6-methylpyrimidine-4-carbonyl)piperazin-1-yl)-7-oxo-2,7-dihydro-4H-[1,2,3]triazolo[4,5-b]pyridin-4-yl)acetamide]
5 to 50 | – | – | CCc1c(N2CCN(C(=O)c3ncnc(C)c3O)[C@H]3CC[C@@H]32)c(=O)c2nn(-c3ccnc(OC)c3)nc2n1CC(=O)NC1CC2(CCC2)C1 [Compound I-86, 2-{5-ethyl-6-[(1S,6S)-5-(5-hydroxy-6-methylpyrimidine-4-carbonyl)-2,5-diazabicyclo[4.2.0]octan-2-yl]-2-(2-methoxypyridin-4-yl)-7-oxo-2H,4H,7H-[1,2,3]triazolo[4,5-b]pyridin-4-yl}-N-{spiro[3.3]heptan-2-yl}acetamide]
